Measured values: patent US20060063784A1, “Method of using substituted pyrazolo [1,5-a] pyrimidines” (priority 2004, published 2006)

Test system: 80S14 (p21-deficient) cells
Test: Cytotoxicity assay using isogenic cell lines: IC50 in 80S14 (p21-deficient) cells, SRB
Assay type: cell-based, human
Conditions: 80S14 (p21-deficient) cells, 5 days, SRB; class symbols; read-out: IC50 for 80S14
How it was run: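 IC50 is the concentration halving proliferation relative to untreated controls, read from SRB absorbance (560 nm) after TCA fixation. Test agent dilutions (5 pM–50 μM or 170 pg/ml–10 μg/ml) were left on p21-deficient 80S14 cells (12,000/well, pre-incubated overnight) for 5 days at 37 °C.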

| Molecule | IC50 [µM] |
| --- | --- |
| CN(C=O)c1cccc(-c2ccnc3c(C(=O)c4cccs4)cnn23)c1 [Example 261, Formamide, N-methyl-N-[3-[3-(2-thienylcarbonyl)pyrazolo[1,5-a]pyrimidin-7-yl]phenyl}] | 1 to 10 |
| 3-(3,5-Dimethylphenyl)-7-{3-[2-(2-piperidin-1-ylethyl)-2H-tetrazol-5-yl]phenyl}pyrazolo[1,5-a]pyrimidine [Example 500] | 1 to 10 |

Same assay, conditions: 80S14 p21-deficient cells, 5 days incubation, SRB; read-out: IC50 for 80SI4

| Molecule | IC50 [µM] |
| --- | --- |
| O=C(c1cccs1)c1cnn2c(-c3cccc(NC(=O)[C@@H]4CCCN4)c3)ccnc12 [Example 85] | 1 to 10 |
| O=C(c1cccs1)c1cnn2c(-c3cccc(NC(=O)C45CC6CC(CC(C6)C4)C5)c3)ccnc12 [Example 53, N-{3-[3-(thien-2-ylcarbonyl)pyrazolo[1,5-a]pyrimidin-7-Yl]phenyl}adamantine-1-carboxamide] | < 1 |
| C[C@H](N)C(=O)Nc1cccc(-c2ccnc3c(C(=O)c4cccs4)cnn23)c1 [Example 78, N-1-{3-[3-(thien-2-ylcarbonyl)pyrazolo[1,5-a]pyrimidin-7-yl]phenyl}-L-alaninamide] | 1 to 10 |

Same assay, conditions: Homo sapiens, 80S14, 120 h, read-out: IC50 for 80SI4 (uM)

| Molecule | IC50 [µM] |
| --- | --- |
| CC(C)CC(=O)Nc1cccc(-c2ccnc3c(C(=O)c4cccs4)cnn23)c1 [Example 47, 3-methyl-N-{3-[3-(thien-2-ylcarbonyl)pyrazolo[1,5-a]pyrimidin-7-yl]phenyl}butanamide] | < 1 |
| C=CCCOC(=O)Nc1cccc(-c2ccnc3c(C(=O)c4cccs4)cnn23)c1 [Example 20, 3-butenyl 3-[3-(2-thienylcarbonyl)pyrazolo[1,5-a]pyrimidin-7-yl]phenylcarbamate] | < 1 |

Same assay, conditions: Homo sapiens, 120 h; 80S14 (p21-deficient) cells, 5 days, SRB; class symbols; read-out: IC50 for 80S14

| Molecule | IC50 [µM] |
| --- | --- |
| O=C(c1ccccc1)c1cnn2c(-c3cccc(N4CCCCC4=O)c3)ccnc12 [Example 227, 1-[3-(3-Benzoylpyrazolo[1,5-a]-pyrimidin-7-yl)phenyl]-2-piperidinone] | 10 to 50 |
| O=C(Nc1cccc(-c2ccnc3c(C(=O)c4cccs4)cnn23)c1)OCc1ccncc1 [Example 416, Pyridin-4-ylmethyl 3-[3-(thien-2-ylcarbonyl)pyrazolo[1,5-a]pyrimidin-7-yl]phenylcarbamate] | < 1 |
| CC(C)CC(=O)Nc1cccc(-c2ccnc3c(-c4cccs4)cnn23)c1 [Example 333, 3-Methyl-N-[3-(3-thien-2-ylpyrazolo[1,5-a]pyrimidin-7-yl)phenyl]butanamide] | 10 to 50 |
| Cc1cc(C)cc(-c2cnn3c(-c4cccc(-c5nnn(CCN6CCCC6)n5)c4)ccnc23)c1 [Example 498, 3-(3,5-Dimethylphenyl)-7-{3-[2-(2-pyrrolidin-1-ylethyl)-2H-tetrazol-5-yl]phenyl}pyrazolo[1,5-a]pyrimidine] | 1 to 10 |
| Cc1nn2c(-c3cccc(NC(=O)CC(C)C)c3)ccnc2c1C(=O)c1cccs1 [Example 307, 3-Methyl-N-{3-[2-methyl-3-(2-thienylcarbonyl)pyrazolo[1,5-a]pyrimidin-7-yl]phenyl}butanamide] | 10 to 50 |
| CCN(C(=O)C1CC1)c1cccc(-c2ccnc3c(C(=O)c4ccco4)cnn23)c1 [Example 257, N-Ethyl-N-[3-[3-(2-furanylcarbonyl)pyrazolo[1,5-a]pyrimidin-7-yl]phenyl}-cyclopropanecarboxamide] | 10 to 50 |
| O=C(c1cccs1)c1cnn2c(-c3cc([N+](=O)[O-])ccc3Cl)ccnc12 [Example 336, [7-(2-Chloro-5-nitrophenyl)pyrazolo[1,5-a]pyrimidin-3-yl](thien-2-yl)methanone] | 10 to 50 |
| CCN(C(=O)C1CC1)c1cccc(-c2ccnc3c(C(=O)c4ccccc4)cnn23)c1 [Example 253, N-[3-(3-Benzoylpyrazolo[1,5-a]pyrimidin-7-yl)phenyl]-N-ethyl-cyclopropanecarboxamide] | 10 to 50 |
| CN(C(=O)C1CCC1)c1cccc(-c2ccnc3c(C(=O)c4ccccc4)cnn23)c1 [Example 232, N-[3-(3-Benzoylpyrazolo-[1,5-a]pyrimidin-7-yl)phenyl]-N-methylcyclobutanecarboxamide] | 10 to 50 |
| Cc1nn2c(-c3cccc(NC(=O)OC(C)C)c3)ccnc2c1C(=O)c1cccs1 [Example 308, Isopropyl 3-[2-methyl-3-(2-thienylcarbonyl)pyrazolo[1,5-a]pyrimidin-7-yl]phenylcarbamate] | 10 to 50 |
| O=C(c1ccco1)c1cnn2c(-c3cccc(N4CCCCC4=O)c3)ccnc12 [Example 226, 1-[3-[3-(2-Furanylcarbonyl)pyrazolo-[1,5-a]pyrimidin-7-yl]phenyl}-2-piperidinone] | 10 to 50 |
| CCN(C(=O)C1CC1)c1cccc(-c2ccnc3ccnn23)c1 [Example 254, N-Ethyl-N-(3-pyrazolo[1,5-a]pyrimidin-7-ylphenyl)-cyclopropanecarboxamide] | 10 to 50 |
| O=C(c1ccco1)c1cnn2c(-c3cccc(NC(=O)C4CCCC4)c3)ccnc12 [Example 302, N-{3-[3-(2-Furoyl)pyrazolo[1,5-a]pyrimidin-7-yl]phenyl}cyclopentanecarboxamide] | < 1 |

Same assay, conditions: Homo sapiens, 120 h; 80S14 p21-deficient cells, 5 days incubation, SRB; read-out: IC50 for 80SI4

| Molecule | IC50 [µM] |
| --- | --- |
| O=C(CNC(=O)c1ccccc1)Nc1cccc(-c2ccnc3c(C(=O)c4cccs4)cnn23)c1 [Example 135, N-[2-oxo-2-({3-[3-(thien-2-ylcarbonyl)pyrazolo[1,5-a]pyrimidin-7-yl]phenyl]amino)ethyl]benzamide] | 1 to 10 |
| O=C(CCCl)Nc1cccc(-c2ccnc3c(C(=O)c4cccs4)cnn23)c1 [Example 139, 3-chloro-N-{3-[3-(thien-2-ylcarbonyl)pyrazolo[1,5-a]pyrimidin-7-yl]phenyl}propanamide] | < 1 |
| O=C(Nc1cccc(-c2ccnc3c(C(=O)c4cccs4)cnn23)c1)c1ccc2ccccc2c1 [Example 104, N-{3-[3-(thien-2-ylcarbonyl)pyrazolo[1,5-a]pyrimidin-7-yl]phenyl}-2-naphthamide] | 10 to 50 |
| O=C(Nc1cccc(-c2ccnc3c(C(=O)c4cccs4)cnn23)c1)c1ccc(Br)cc1 [Example 90, 4-bromo-N-{3-[3-(thien-2-ylcarbonyl)pyrazolo[1,5-a]pyrimidin-7-yl]phenyl}benzamide] | 1 to 10 |
| C=CCCOC(=O)NCC(=O)Nc1cccc(-c2ccnc3c(C(=O)c4cccs4)cnn23)c1 [Example 118, but-3-enyl-2-oxo-2-({3-[3-(thien-2-ylcarbonyl)pyrazolo[1,5-a]pyrimidin-7-yl]phenyl}amino)ethylcarbamate] | 1 to 10 |
| CCCCCCOC(=O)NCC(=O)Nc1cccc(-c2ccnc3c(C(=O)c4cccs4)cnn23)c1 [Example 122, hexyl 2-oxo-2-({3-[3-(thien-2-ylcarbonyl)pyrazolo[1,5-a]pyrimidin-7-yl]phenyl}amino)ethylcarbamate] | 1 to 10 |
| CC(C)CC(C)OC(=O)Nc1cccc(-c2ccnc3c(C(=O)c4cccs4)cnn23)c1 (centres unmarked) [Example 185, 1,3-dimethylbutyl3-[3-(thien-2-ylcarbonyl)pyrazolo[1,5-a]pyrimidin-7-yl]phenylcarbamate] | 1 to 10 |
| COC(=O)CCC(=O)Nc1cccc(-c2ccnc3c(C(=O)c4cccs4)cnn23)c1 [Example 42, methyl 4-oxo-4-({3-[3-(thien-2-ylcarbonyl)pyrazolo[1,5-a]pyrimidin-7-yl]phenyl}amino)butanoate] | 10 to 50 |
| CN1CCN(C(=O)Nc2cccc(-c3ccnc4c(C(=O)c5cccs5)cnn34)c2)CC1 [Example 166, 4-methyl-N-{3-[3-(thien-2-ylcarbonyl)pyrazolo[1,5-a]pyrimidin-7-yl]phenyl}piperazine-1-carboxamide] | 1 to 10 |
